Results on 36 compounds are retold here after patent US9822127B2, “GAK modulators as antivirals” (Katholieke Universiteit Leuven, priority 2014, dated 2017).

The target in one data set is T1, GAK (Homo sapiens, UniProt O14976).
T1 construct: made in house; host or cells: T7 phage grown in E. coli host derived from BL21
T1 sequence (O14976 1-1311): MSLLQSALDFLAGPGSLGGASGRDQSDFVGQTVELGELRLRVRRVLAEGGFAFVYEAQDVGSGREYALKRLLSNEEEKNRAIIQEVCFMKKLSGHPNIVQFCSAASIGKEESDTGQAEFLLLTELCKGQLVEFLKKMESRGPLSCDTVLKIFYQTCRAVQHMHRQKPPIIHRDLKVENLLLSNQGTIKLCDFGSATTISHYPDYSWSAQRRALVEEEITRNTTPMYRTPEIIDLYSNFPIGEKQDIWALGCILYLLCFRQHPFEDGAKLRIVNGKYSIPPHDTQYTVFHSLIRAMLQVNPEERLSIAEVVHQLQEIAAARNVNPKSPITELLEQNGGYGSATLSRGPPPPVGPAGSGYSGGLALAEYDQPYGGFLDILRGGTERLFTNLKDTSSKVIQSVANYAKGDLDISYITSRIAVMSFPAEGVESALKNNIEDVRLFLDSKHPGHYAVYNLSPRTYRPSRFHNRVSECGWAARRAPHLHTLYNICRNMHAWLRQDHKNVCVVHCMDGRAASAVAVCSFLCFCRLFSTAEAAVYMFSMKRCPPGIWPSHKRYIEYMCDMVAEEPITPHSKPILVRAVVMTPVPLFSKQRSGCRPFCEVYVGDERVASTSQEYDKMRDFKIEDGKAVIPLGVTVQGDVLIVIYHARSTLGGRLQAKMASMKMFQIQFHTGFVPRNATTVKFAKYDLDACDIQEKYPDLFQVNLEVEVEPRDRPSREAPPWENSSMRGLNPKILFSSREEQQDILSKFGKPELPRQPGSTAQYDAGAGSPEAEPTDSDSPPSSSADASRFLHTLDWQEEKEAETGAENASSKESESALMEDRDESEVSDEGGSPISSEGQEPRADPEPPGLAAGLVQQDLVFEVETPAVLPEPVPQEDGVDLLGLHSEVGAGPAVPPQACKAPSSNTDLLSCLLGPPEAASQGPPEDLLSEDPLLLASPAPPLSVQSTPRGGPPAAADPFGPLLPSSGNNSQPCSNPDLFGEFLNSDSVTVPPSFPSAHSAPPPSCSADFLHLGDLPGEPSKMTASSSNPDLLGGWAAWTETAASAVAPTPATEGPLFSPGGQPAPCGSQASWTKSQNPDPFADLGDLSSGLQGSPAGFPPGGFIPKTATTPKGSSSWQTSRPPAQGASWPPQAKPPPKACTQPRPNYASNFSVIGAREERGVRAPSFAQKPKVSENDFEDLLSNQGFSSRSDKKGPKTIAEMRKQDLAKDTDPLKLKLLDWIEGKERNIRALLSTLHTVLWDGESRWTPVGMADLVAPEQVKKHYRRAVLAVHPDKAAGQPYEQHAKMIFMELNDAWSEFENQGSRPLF
Description: GAK binding assay (T7 phage kinase competition binding). The settings on record: for remaining binding at 10 µM: read-out: % Ctrl; for % Ctrl: 10 µM.

Data set [1] can be described thus: Cytotoxicity in CPE assay, Vero76. The settings on record: African green monkey.
Data set [2] has as its system SARS Coronavirus (Virus strain: Urbani). Description: microbe, parasite or virus in culture. In kind it is cell-based.
The mark [3] stands for this setting: single concentration of 10 μM, lower numbers indicate stronger hits.
The mark [4] stands for this setting: Severe acute respiratory syndrome coronavirus, Vero 76.

Converted amounts (≈) assume the structure as drawn. Like-named read-outs stand apart in the source and are kept apart here.

With `c1cncc(-c2cnc3c(N4CCOCC4)snc3c2)c1` [Example 25, 3-morpholino-6-(3-pyridyl)-isothiazolo[4,3-b]pyridine], on GAK (setting [3]), the remaining binding at 10 µM is 25%.
Regarding `COc1ccc(-c2cnc3c(N4CCSCC4)snc3c2)cc1OC` [Example 58, 6-(3,4-dimethoxyphenyl)-3-thiomorpholinoisothiazolo[4,3-b]pyridine], on GAK, the Kd came out at 230 nM. Besides, the remaining binding at 10 µM at GAK (setting [3]) stood at 0.8%.
Turning to `COc1snc2cc(Br)cnc12` [Example 14, 3-methoxy-6-bromo-isothiazolo[4,3-b]pyridine], the “% Ctrl” value on GAK (setting [3]) is given as 87%.
Turning to `c1cc(-c2cnc3c(N4CCOCC4)snc3c2)cs1` [Example 27], on GAK (setting [3]), the remaining binding at 10 µM worked out at 0.1%.
Consider `CN1CCN(c2snc3cc(-c4ccsc4)cnc23)CC1` [Example 41, 3-(N-Me-piperazinyl)-6-(3-thienyl)-isothiazolo[4,3-b]pyridine], for which the remaining binding at 10 µM at GAK (setting [3]) stood at 7.4%.
The same measure, in the same setting: for `Nc1snc2cc(-c3ccccc3)cnc12` [Example 4, 3-amino-6-phenyl-isothiazolo[4,3-b]-pyridine] the value was 68%.
With `COc1ccc(-c2cnc3c(OC)snc3c2)cc1OC` [Example 36], at GAK, the “% Ctrl” value is 19%.
For the compound `c1ccc(-c2cnc3c(N4CCOCC4)snc3c2)cc1` [Example 23, 3-morpholino-6-phenyl-isothiazolo[4,3-b]pyridine], the CC50 came out at 50 µg/mL (≈ 168 µM) in data set [1] (CC50, Neutral Red) and 34 µg/mL (≈ 114 µM) in data set [1] (CC50, Visual). Besides, the EC50 in data set [2] is 4.4 µg/mL (≈ 14.8 µM); in data set [2] (setting [4]) it was 4.5 µg/mL (≈ 15.1 µM). This compound showed a Kd on GAK of 500 nM. Further, the remaining binding at 10 µM at GAK (setting [3]) worked out at 0.8%.
Regarding `CN1CCN(c2snc3cc(-c4ccccc4)cnc23)CC1` [Example 38], the remaining binding at 10 µM at GAK (setting [3]) is 76%.
On to `Nc1snc2cc(-c3cccnc3)cnc12` [Example 5, 3-amino-6-(3-pyridyl)-isothiazolo[4,3-b]pyridine], for which, on GAK (setting [3]), the remaining binding at 10 µM came to 80%.
Turning to `COc1cc(-c2cnc3c(N4CCOCC4)snc3c2)ccc1O` [Example 64, 2-methoxy-4-(3-morpholinoisothiazolo[4,3-b]pyridin-6-yl)phenol], the cytotoxic concentration (CC50) in data set [1] (CC50, Neutral Red) was 0.97 µg/mL (≈ 2.82 µM); in data set [1] (CC50, Visual), 0.42 µg/mL (≈ 1.22 µM). In addition, on GAK (setting [3]), the remaining binding at 10 µM is 0%.
On to `COc1ccc(OC)c(-c2cnc3c(N4CCOCC4)snc3c2)c1` [Example 44, 4-(6-(2,5-Dimethoxyphenyl)isothiazolo[4,3-b]pyridin-3-yl)morpholine], for which, on GAK (setting [3]), the remaining binding at 10 µM was found to be 0.7%.
Regarding `COc1ccc(-c2cnc3c(N4CCOCC4)snc3c2)cc1OC` [Example 26], the remaining binding at 10 µM on GAK (setting [3]) came out at 0%.
Consider `COc1ccc(-c2cnc3c(NCC4CC4)snc3c2)cc1OC` [Example 76, N-(cyclopropylmethyl)-6-(3,4-dimethoxyphenyl)isothiazolo[4,3-b]pyridin-3-amine], for which the CC50 in data set [1] (CC50, Neutral Red) worked out at 33 µg/mL (≈ 96.7 µM); in data set [1] (CC50, Visual), 18 µg/mL (≈ 52.7 µM). For the same compound, the EC50 in data set [2] came out at 0.54 µg/mL (≈ 1.58 µM); in data set [2] (setting [4]), 0.86 µg/mL (≈ 2.52 µM). On GAK, this compound yielded a Kd of 27 nM. Besides, the remaining binding at 10 µM at GAK (setting [3]) was determined as 0%.
For `OCCNc1snc2cc(-c3ccccc3)cnc12` [Example 31, 3-ethanolamino-6-phenyl-isothiazolo[4,3-b]pyridine], at GAK (setting [3]), the remaining binding at 10 µM amounted to 18%.
As for `COc1ccc(-c2cnc3c(N(CCO)CCO)snc3c2)cc1OC` [Example 70, 2,2′-(6-(3,4-dimethoxyphenyl)isothiazolo[4,3-b]pyridin-3-ylazanediyl)diethanol], the dissociation constant Kd at GAK turned out to be 320 nM. For the same compound, the remaining binding at 10 µM on GAK (setting [3]) amounted to 4%.
Take `OCCNc1snc2cc(-c3ccsc3)cnc12` [Example 30, 3-ethanolamino-6-(3-thienyl)-isothiazolo[4,3-b]pyridine]: the dissociation constant Kd at GAK turned out to be 300 nM. For the same compound, the remaining binding at 10 µM at GAK (setting [3]) is 0.3%.
On to `COc1snc2cc(-c3ccc(F)cc3)cnc12` [Example 34, 3-methoxy-6-(4-fluoro-phenyl)-isothiazolo[4,3-b]pyridine], for which the remaining binding at 10 µM on GAK (setting [3]) amounted to 37%.
For `CN1CCN(c2snc3cc(-c4cccnc4)cnc23)CC1` [Example 39, 3-(N-Me-piperazinyl)-6-(3-pyridyl)-isothiazolo[4,3-b]pyridine], the remaining binding at 10 µM at GAK (setting [3]) is 88%.
`COc1snc2cc(-c3cccnc3)cnc12` [Example 35]: the “% Ctrl” value on GAK is reported as 93%.
`c1csc(-c2cnc3c(N4CCOCC4)snc3c2)c1` [Example 43, 4-(6-(Thiophen-2-yl)isothiazolo[4,3-b]pyridin-3-yl)morpholine] displayed a dissociation constant Kd at GAK of 47 nM. Further, on GAK (setting [3]), the remaining binding at 10 µM is 0.05%.
`Fc1ccc(-c2cnc3c(N4CCOCC4)snc3c2)cc1` [Example 24]: the remaining binding at 10 µM at GAK (setting [3]) came to 11%.
Consider `COc1ccc(-c2cnc3c(N4CCOCC4)snc3c2)c(OC)c1` [Example 45, 4-(6-(2,4-Dimethoxyphenyl)isothiazolo[4,3-b]pyridin-3-yl)morpholine], for which the remaining binding at 10 µM on GAK (setting [3]) was 6.3%.
For “6-bromo-6-ethanolamino-isothiazolo[4,3-b]pyridine [Example 12]”, the “% Ctrl” value on GAK amounted to 62%.
`COc1ccc(-c2cnc3c(N4CCCC4)snc3c2)cc1OC` [Example 73, 6-(3,4-dimethoxyphenyl)-3-(pyrrolidin-1-yl)isothiazolo[4,3-b]pyridine] came in with a dissociation constant (Kd) on GAK of 100 nM. In addition, the remaining binding at 10 µM on GAK (setting [3]) is 0%.
Take `CN1CCN(c2snc3cc(-c4ccc(F)cc4)cnc23)CC1` [Example 42, 3-(N-Me-piperazinyl)-6-(4-fluorophenyl)-isothiazolo[4,3-b]pyridine]: the remaining binding at 10 µM at GAK (setting [3]) is 72%.
Still for that read-out and setting: for `COc1cc(OC)cc(-c2cnc3c(N4CCOCC4)snc3c2)c1` [Example 48, 4-(6-(3,5-Dimethoxyphenyl)isothiazolo[4,3-b]pyridin-3-yl)morpholine] the value was 0.2%.
`c1cc2c(cc1-c1cnc3c(N4CCOCC4)snc3c1)OCO2` [Example 51, 4-(6-(Benzo[d][1,3]dioxol-5-yl)isothiazolo[4,3-b]pyridin-3-yl)morpholine]: the remaining binding at 10 µM at GAK (setting [3]) amounted to 51%.
For `Nc1snc2cc(-c3ccc(F)cc3)cnc12` [Example 7, 3-amino-6-(4-fluorophenyl)-isothiazolo[4,3-b]pyridine], the remaining binding at 10 µM at GAK (setting [3]) came out at 55%.
With `Nc1snc2cc(-c3ccsc3)cnc12` [Example 8, 3-amino-6-(3-thienyl)-isothiazolo[4,3-b]pyridine], the remaining binding at 10 µM on GAK (setting [3]) amounted to 61%.
Regarding `OCCNc1snc2cc(-c3ccc(F)cc3)cnc12` [Example 32, 3-ethanolamino-6-(3-(4-fluorophenyl))-isothiazolo[4,3-b]pyridine], on GAK (setting [3]), the remaining binding at 10 µM turned out to be 2.2%.
On to `COc1cc(-c2cnc3c(N4CCOCC4)snc3c2)ccc1OC(C)=O` [Example 47, 2-Methoxy-4-(3-morpholinoisothiazolo[4,3-b]pyridin-6-yl)phenyl acetate], for which the remaining binding at 10 µM at GAK (setting [3]) was determined as 0%.
As to `OCCNc1snc2cc(-c3cccnc3)cnc12` [Example 28], the remaining binding at 10 µM on GAK (setting [3]) was 45%.
Same read-out and setting: for `COc1ccc(-c2cnc3c(N4CCN(C)CC4)snc3c2)cc1OC` [Example 40, 3-(N-Me-piperazinyl)-6-(3,4-dimethoxyphenyl)-isothiazolo[4,3-b]pyridine] the value was 19%; for `COc1ccc(-c2cnc3c(N)snc3c2)cc1OC` [Example 6, 3-amino-6-(3,4-dimethoxyphenyl)-isothiazolo[4,3-b]pyridine], 70%.
As to `COc1snc2cc(-c3ccsc3)cnc12` [Example 37], the “% Ctrl” value at GAK is on record as 22%.
